From ChEMBL document CHEMBL3137667, “[Drug-induced liver injury; fourteenth updated edition of the bibliographic database of liver injuries and related drugs]” (Gastroenterol Clin Biol, 2004)

How the values were obtained:
[1] = human, serum
[2] = human, serum, 4383 h
[3] = human
[4] = Highest frequency of acute liver toxicity observed during clinical trials, expressed as a percentage. [column '% AIGUE' in source]; settings: human
[5] = human; remark: listed apart in the source
[6] = human; remark: listed apart in the source
[7] = Times to onset, minimal and maximal, observed in the indexed observations. [column 'DELAI' in source]; settings: human
[8] = human; remark: listed apart in the source
[9] = Highest frequency of moderate liver toxicity observed during clinical trials, expressed as a percentage. [column '% BIOL' in source]; settings: human
[10] = human, serum; remark: listed apart in the source
[11] = human; remark: listed apart in the source
[12] = human; remark: listed apart in the source
[13] = human; remark: listed apart in the source
[14] = human; remark: listed apart in the source
[15] = human; remark: listed apart in the source
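Wherever Hepatotoxicity (association with vascular disease) is given: count of indexed literature references reporting vascular liver injury in humans, e.g. peliosis hepatitis, hepatic veno-occlusive disease or Budd-Chiari syndrome.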
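Wherever Hepatotoxicity (benign tumour) is given: value is a count of indexed literature references citing a benign tumour confirmed by histopathology.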
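Wherever Hepatotoxicity (choleostasis) is given: human cholestatic liver injury, shown by histopathology or by peak ALT or AST elevation over alkaline phosphatase ratio below 2, value counts indexed literature reports.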
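Wherever Hepatotoxicity (chronic liver disease) is given: chronic liver injury confirmed by histopathology or persistently raised serum aminotransferase activity beyond 6 months, value given as the count of indexed literature references.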
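Wherever Hepatotoxicity (cirrhosis) is given: value is a count of indexed literature references reporting cirrhosis confirmed by histopathology.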
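Wherever Hepatotoxicity (cytolytic) is given: human cytolytic liver injury, shown by histopathology or by a ratio above 5 of peak ALT or AST elevation to alkaline phosphatase elevation, value counts indexed references.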
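Wherever Hepatotoxicity (granulomatous hepatitis) is given: value is a count of indexed literature references reporting granulomatous liver disease confirmed by histopathology.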
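Wherever Hepatotoxicity (malignant tumour) is given: malignant tumour confirmed by histopathology, value gives the count of indexed literature references reporting it.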
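Wherever Hepatotoxicity (severe hepatitis) is given: human clinical data: severe hepatitis, meaning potentially life-threatening liver failure or clinically observed cases, the value counts how many indexed literature references report it.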
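Wherever Hepatotoxicity (steatosis) is given: steatosis confirmed by histopathology, value is the count of indexed references.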

SMILES | Hepatotoxicity (acute) [1] | Hepatotoxicity (chronic liver disease) [2] | Hepatotoxicity (cytolytic) [3] | Hepatotoxicity (acute) [4] | Hepatotoxicity (severe hepatitis) [5] | Hepatotoxicity (benign tumour) [6] | Hepatotoxicity (time to onset) [7] | Hepatotoxicity (malignant tumour) [8] | Hepatotoxicity (moderate) [9] | Hepatotoxicity (moderate) [10] | Hepatotoxicity (choleostasis) [11] | Hepatotoxicity (steatosis) [12] | Hepatotoxicity (cirrhosis) [13] | Hepatotoxicity (granulomatous hepatitis) [14] | Hepatotoxicity (association with vascular disease) [15] | other results
NC(=O)OCC(COC(N)=O)c1ccccc1 [FELBAMATE] | 4 | 0 | 2 | 0% | 3 | 0 | 13 days - 6 months | 0 | 7.1% | 4 | 0 | 0 | 0 | 0 | 0 | –
N[C@@H]1CON=C1O [CYCLOSERINE] | 2 | 0 | 2 | 5.4% | 1 | 0 | 11 weeks | 0 | 13% | 3 | 0 | 0 | 0 | 0 | 0 | –
CNC1Cc2ccccc2N(C)c2ccccc21 (stereo not given) [METAPRAMINE] | 1 | 0 | 1 | 0% | 0 | 0 | 3 weeks - 3 months | 0 | 0% | 0 | 1 | 1 | 0 | 0 | 0 | –
CO/N=C1\CN(c2nc3c(cc2F)c(=O)c(C(=O)O)cn3C2CC2)CC1CN (stereo not given) [GEMIFLOXACIN] | 0 | 0 | 0 | 0% | 0 | 0 | 6 days | 0 | 0.3% | 4 | 0 | 0 | 0 | 0 | 0 | –
CC1(C)O[C@@H]2[C@@H](CO[C@@]3(COS(N)(=O)=O)OC(C)(C)O[C@@H]23)O1 [TOPIRAMATE] | 2 | 0 | 2 | 0% | 1 | 0 | 2 months - 4 months | 0 | 23% | 1 | 0 | 0 | 0 | 0 | 0 | –
CC(C)Cc1ccc(CC(=O)O)cc1 [IBUFENAC] | 3 | 0 | 3 | 5% | 1 | 0 | 4 months | 0 | 40% | 2 | 1 | 0 | 0 | 0 | 0 | –
C=CCOc1ccccc1OCC(O)CNC(C)C (stereo not given) [OXPRENOLOL] | 1 | 0 | – | – | – | 0 | 1 day - 15 days | 0 | – | 1 | – | 0 | 0 | – | 0 | Hepatotoxicity (cytolytic) ([3]; Liver): 1; Hepatotoxicity (acute) ([4]; Liver): 0%; Hepatotoxicity (severe hepatitis) ([5]; Liver): 0; Hepatotoxicity (moderate) ([9]; Liver): 0%; Hepatotoxicity (choleostasis) ([11]; Liver): 0; Hepatotoxicity (granulomatous hepatitis) ([14]; Liver): 0
CCC(=O)[C@@]1(C)CC[C@H]2[C@@H]3CCC4=CC(=O)CCC4=C3CC[C@@]21C [PROMEGESTONE] | 0 | 0 | 0 | 0% | 0 | 1 | 3 years | 0 | 0% | 0 | 0 | 0 | 0 | 0 | 0 | –
CC1(C)S[C@@H]2[C@H](NC(=O)[C@H](NC(=O)N3CCN(S(C)(=O)=O)C3=O)c3ccccc3)C(=O)N2[C@H]1C(=O)O [MEZLOCILLIN] | 1 | 0 | – | – | – | 0 | 2 weeks - 3 weeks | 0 | – | 6 | – | 0 | 0 | – | 0 | Hepatotoxicity (cytolytic) ([3]; Liver): 0; Hepatotoxicity (acute) ([4]; Liver): 0%; Hepatotoxicity (severe hepatitis) ([5]; Liver): 0; Hepatotoxicity (moderate) ([9]; Liver): 25%; Hepatotoxicity (choleostasis) ([11]; Liver): 1; Hepatotoxicity (granulomatous hepatitis) ([14]; Liver): 0
O=[As](O)(O)c1ccc(NCCNc2ccc([As](=O)(O)O)cc2)cc1 [DIFETARSONE] | 2 | 0 | 2 | 0% | 0 | 0 | 2 days - 3 weeks | 0 | 6% | 1 | 2 | 0 | 0 | 0 | 0 | –
Sc1ncnc2[nH]ncc12 [TISOPURINE] | 1 | 0 | 1 | 0% | 0 | 0 | 1.5 months | 0 | 0% | 0 | 0 | 0 | 0 | 0 | 0 | –
